Several values for one entry are separate records, joined by “and”; a condition that tells them apart may be missing. Equal values may be shown once. Entries after “also recorded” stand apart in the source; their conditions may differ. Read-outs that look alike come from different tables or passages of the source.
What was measured:
[1] = system: HCC (hepato cellular carcinoma); experiment: Transition of PIVKA-II (tumor marker) values in GM-administered HCC patients; assay type: in vivo
Description: (§1) AFP (Alpha-fetoprotein) and PIVKA-II (isomer of prothrombin) were used as tumor markers of HCC. […] In general, it is often difficult to determine the shrinkage of cancer lesions by CT scanning or echo imaging immediately after conducting TAE, therefore these markers are used to determine the effects. In Japan, the conventional Alpha-feto Riabeads method has been replaced by the Chemilumi ACS-AFP method since May 2004. The former is a radiation immunoassay whose standard value is ≦20. Meanwhile, the latter is a chemiluminescence immunoassay whose standard value is ≦10.
HCC patients and AFP-positive (precancerous lesions or regenerating hepatocytes) patients without HCC observed on the images (on CT or echo exam) were given 100-300 mg of gabexate mesilate (hereinafter referred to as “GM”) dissolved in 150-300 ml of physiological saline or of 5% glucose by intravenous drip infusion. GM is originally a drug applicable to chronic pancreatitis, acute pancreatitis, and DIC (disseminated intravascular coagulation), however, informed consent was obtained before the administration. And in allergy cases, the starting dose was 75-100 mg and increased. The nonadministered group is GM-nonadministered HCC cases.
In general, AFP and PIVKA-II values are considered to represent cancer viability in hepato cellular carcinoma cases. […]

[2] = Side effects of GM among 22 cases; assay type: in vivo, patients; conditions: among 22 cases including pancreatic disease cases
Description: Side effects of GM used in the present invention already include shock, anaphylaxis, bleeding tendency, granulocytopenia, fall in blood pressure, elevation of GOT and GPT, facial flushing and the like; among 22 cases including pancreatic disease cases, shock: 0 case, anaphylaxis: 3 cases, bleeding tendency: 0 case, slight granulocytopenia: 22 cases, significant fall in blood pressure: 0 case, elevation of GOT and GPT: 2 cases, and withdrawal: 0.

[3] = system: HCC (hepato cellular carcinoma); experiment: Transition of AFP (tumor marker) values in GM-administered HCC patients; assay type: in vivo; conditions: for Average AFP value: GM-administered HCC group with abnormal AFP values; for Effect on AFP values (in words): GM-administered HCC patients, 100-300 mg intravenous drip infusion
Description: as §1
HCC patients and AFP-positive (precancerous lesions or regenerating hepatocytes) patients without HCC observed on the images ([…] as “GM”) dissolved in 150-300 ml of physiological saline or of 5% glucose by intravenous drip infusion. GM is originally a drug applicable to chronic pancreatitis, acute pancreatitis, and DIC (disseminated intravascular coagulation), however, informed consent was obtained before the administration. And in allergy cases, the starting dose was 75-100 mg and increased. The nonadministered group is GM-nonadministered HCC cases.
In general, AFP and PIVKA-II values are considered to represent cancer viability in hepato cellular carcinoma cases. GM is considered to suppress the viability, since GM suppresses AFP and PIVKA-II values. […]
As described above, GM administration after TAE was conducted 10 days after TAE was completed. And GM was considered effective if suppression was observed 4 months after TAE was completed.

CCOC(=O)c1ccc(OC(=O)CCCCCN=C(N)N)cc1.CS(=O)(=O)O [GM, gabexate mesilate]
Effect on PIVKA-II values (in words) [1]: elevation of PIVKA-II and AFP values was not observed | Effect on PIVKA-II values (in words) ([1]; listed as gabexate mesilate): dropped, or their elevation was suppressed | Side effect: anaphylaxis [2]: 3 cases | Side effect: bleeding tendency [2]: 0 case | Side effect: elevation of GOT and GPT [2]: 2 cases | Side effect: shock [2]: 0 case | Side effect: significant fall in blood pressure [2]: 0 case | Side effect: slight granulocytopenia [2]: 22 cases | Withdrawal [2]: 0 | Maximum AFP value ([3]; 0 M, GM-administered HCC group): 18.9 ng/mL | Minimum AFP value ([3]; 0 M, GM-administered HCC group): 6.5 | Average AFP value ([3]; 0 M, 7 cases): 11.1 ± 4.8 and 11.1 | AFP value ([3]; 0 M, individual GM-administered HCC patient, Chemilumi ACS-AFP method): 18.9 and 15.5 and 8.1 and 7.2 and 8.5 and 6.5 and 13.0 | Increase and decrease in AFP value, Δ 1 M ([3]; 1 M versus 0 M, individual GM-administered HCC patient): −2.7 and −1.3 and 3.6 and 2.4 and 3.3 and 0.3 and −3.4 | Average difference of AFP from the value at 0M ([3]; 1 M, GM-administered HCC group): 0.3 and 0.3143 | Maximum AFP value ([3]; 1 M, GM-administered HCC group): 19.2 ng/mL | Minimum AFP value ([3]; 1 M, GM-administered HCC group): 5.4 | Significant difference of AFP versus 0M ([3]; 1 M, GM-administered HCC group): none | Average AFP value ([3]; 1 M, 7 cases): 11.4 ± 5.1 and 11.4 | AFP value ([3]; 1 M, individual GM-administered HCC patient, Chemilumi ACS-AFP method): 19.2 and 12.1 and 5.4 and 5.9 and 8.9 and 16.3 | Increase and decrease in AFP value, Δ 2 M ([3]; 2 M versus 0 M, individual GM-administered HCC patient): −1.4 and 3.1 and −0.3 and 2.2 and 1.5 and −6.8 | Maximum AFP value ([3]; 2 M, GM-administered HCC group): 20.4 ng/mL | Minimum AFP value ([3]; 2 M, GM-administered HCC group): 5.8 | Significant difference of AFP versus 0M ([3]; 2 M, GM-administered HCC group): none | Average AFP value ([3]; 2 M, 6 cases): 11.3 ± 5.7 and 11.3 | AFP value ([3]; 2 M, individual GM-administered HCC patient, Chemilumi ACS-AFP method): 20.4 and 8.7 and 5.8 and 11.6 and 6.2 and 15.2 | Increase and decrease in AFP value, Δ 3 M ([3]; 3 M versus 0 M, individual GM-administered HCC patient): −3 and −3.2 and 5.1 and 0.2 and 3.7 and 4.1 and −9.4 | Maximum AFP value ([3]; 3 M, GM-administered HCC group): 23 ng/mL | Minimum AFP value ([3]; 3 M, GM-administered HCC group): 4.0 | Significant difference of AFP versus 0M ([3]; 3 M, GM-administered HCC group): none | Average AFP value ([3]; 3 M, 7 cases): 10.7 ± 7.2 and 10.7 | AFP value ([3]; 3 M, individual GM-administered HCC patient, Chemilumi ACS-AFP method): 23.0 and 6.1 and 5.1 and 4.0 and 13.6 and 6.7 and 16.7 | AFP value ([3]; 3rd case of TABLE 2, 20 mg of GM, when HCC was roughly diagnosed by contrast CT): 8-9 | Current AFP value ([3]; 4th case of TABLE 2, 200 mg of GM after TAE): around 7 | Highest AFP value reached ([3]; 4th case of TABLE 2, GM reduced to 75-100 mg because of allergy, before TAE): up to 70 | Statistical difference of AFP between each month and 0M (in words) ([3]; GM-administered HCC patients of TABLE 2): no significant difference | Effect on AFP values (in words) [3]: the elevation of AFP values was suppressed; also recorded: elevation of PIVKA-II and AFP values was not observed | Effect on AFP values (in words) ([3]; listed as gabexate mesilate): dropped, or their elevation was suppressed; also recorded: suppressed the elevation of AFP values for a prolonged period | Number of times of effective GM administrations after TAE ([3]; cases of TABLE 2, effective if suppression observed 4 months after TAE): 6 | Current AFP value ([3]; first case of TABLE 2, person, GM 200-300 mg with repeated TAE): 9.0 | Number of times of effective GM administrations, single GM administration ([3]; single GM-administered cases including 4 cases with abnormal AFP values of unknown etiology, effective if markers suppressed in one month): 7

From patent US20060293386A1, “Method for treating cancer” (priority 2005, published 2006)
